Experimental data reported in US11166947B2, “Effective dosing of a child for the treatment of ADHD with methylphenidate” (Neos Therapeutics, LP, priority 2016, dated 2021).
≈ marks a conversion by molar mass, not a printed value.

Tested on: pediatric patients with ADHD
Assay: Integrated PKPD model fit to SKAMP total score measurements from the Day 7 classroom evaluation
Type: in vivo, human
Settings: base (final) PKPD model estimate, 81 pediatric patients
Description: This example describes the development of a pharmacokinetic-pharmacodynamic model for the therapeutic effect of a particular methylphenidate formulation and its testing on a population of pediatric patients with ADHD. The drug formulation tested in this example is designated MPH XR-ODT and described in U.S. Publication No. 2014/0030348, which is incorporated herein by reference.
The structural PK model for a plasma concentration following administration of the stimulant was described by two parallel inputs into a central compartment and linear elimination from the central compartment.
Body weight appears as a covariate of CL and V which was included in the model in the following way: CLi=tvCL*Weight^0.655 Equation 1 Vi=tvV*Weight^0.670 Equation 2 where CL, and V, are the clearance and volume of distribution parameters for individual “i”, tvCL and tvV are the typical population clearance and volume of distribution parameters, and weight is body weight in kg. Model parameters were determined using nonlinear mixed-effects modeling with first-order conditional maximum likelihood estimation using Phoenix NLME (Version 6.3).
This phenomenon was readily obvious in the patients that were assigned to the placebo treatment arm. Therefore, the PD model required a drug effect component and a placebo effect component. […]

COC(=O)C(c1ccccc1)C1CCCCN1 (centres unmarked) [methylphenidate]
EC50 (Homo sapiens, simulated plasma concentrations, read-out: EC50, concentration of methylphenidate required to achieve 50% of the maximal reduction in SKAMP total score): 0.0142 mg/L (≈ 0.061 µM)
Emax, maximum reduction in SKAMP total score with administration of methylphenidate: 38.1
